Measurements published in ChEMBL document CHEMBL1932964, “Lead optimisation of pyrazoles as novel FPR1 antagonists” (Bioorg Med Chem Lett, 2012).
Values after ≈ are worked out from the molar mass of the structure shown.

How the values were obtained:
fMet-Leu-Phe receptor [1] = target: T1, fMet-Leu-Phe receptor (Homo sapiens, UniProt P21462); assay: Antagonist activity at human recombinant FPR1 in expressed in HEK293 cells assessed as inhibition of FMLP-stimulated intracellular calcium mobilisation after 1 hr by FLIPR assay; format: functional, cell-based
T1 sequence (P21462 whole entry): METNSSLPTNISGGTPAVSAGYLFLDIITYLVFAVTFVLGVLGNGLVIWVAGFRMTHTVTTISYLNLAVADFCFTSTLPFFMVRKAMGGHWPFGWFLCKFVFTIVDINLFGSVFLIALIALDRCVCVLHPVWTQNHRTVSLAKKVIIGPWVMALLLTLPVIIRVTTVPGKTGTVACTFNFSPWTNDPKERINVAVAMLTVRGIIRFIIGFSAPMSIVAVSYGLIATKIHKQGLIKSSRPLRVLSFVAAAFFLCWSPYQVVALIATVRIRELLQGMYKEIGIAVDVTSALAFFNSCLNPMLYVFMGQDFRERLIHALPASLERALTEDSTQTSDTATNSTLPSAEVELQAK

[2] = Intrinsic clearance in Sprague-Dawley rat hepatocytes assessed per 10^6 cells measured after 90 mins
[3] = Distribution coefficient, log D of compound; format: physicochemical; details: octanol/water
[4] = Intrinsic clearance in human liver microsomes measured after 45 mins post NADPH addition
[5] = Intrinsic clearance in human hepatocytes assessed per 10^6 cells measured after 90 mins
[6] = (§1) Fraction unbound in human plasma; format: ADME, cell-free
[7] = (§2) Fraction unbound in Sprague-Dawley rat plasma; format: ADME, cell-free; details: Sprague-Dawley
[8] = Clearance in Sprague-Dawley rat at 2 mg/kg, iv; details: in vivo
[9] = Half life in Sprague-Dawley rat at 2 mg/kg, iv; details: in vivo
[10] = Volume of distribution at steady state in Sprague-Dawley rat at 2 mg/kg, iv; format: ADME, organism-based; parameters: dose 2 mg/kg, route intravenous; details: in vivo, read-out: Vdss
[11] = Oral bioavailability in Sprague-Dawley rat at 2 mg/kg; format: ADME, organism-based; details: in vivo
fMet-Leu-Phe receptor [12] = target: T1, fMet-Leu-Phe receptor; assay: Antagonist activity at FPR1 in human neutrophils assessed as AB/fMLF-stimulated upregulation of CD11b expression preincubated for 30 mins before AB/FMLF challenge measured after 50 mins using FITC staining by flow cytometry; format: functional; details: read-out: pA2 (converted)
THP-1 = assay: Cytotoxicity against human THP1 cells; format: cell-based
Cytochrome P450 1A2 = target: T2, Cytochrome P450 1A2 (Homo sapiens, UniProt P05177); assay: Inhibition of CYP1A2; format: ADME
T2 sequence (P05177 whole entry): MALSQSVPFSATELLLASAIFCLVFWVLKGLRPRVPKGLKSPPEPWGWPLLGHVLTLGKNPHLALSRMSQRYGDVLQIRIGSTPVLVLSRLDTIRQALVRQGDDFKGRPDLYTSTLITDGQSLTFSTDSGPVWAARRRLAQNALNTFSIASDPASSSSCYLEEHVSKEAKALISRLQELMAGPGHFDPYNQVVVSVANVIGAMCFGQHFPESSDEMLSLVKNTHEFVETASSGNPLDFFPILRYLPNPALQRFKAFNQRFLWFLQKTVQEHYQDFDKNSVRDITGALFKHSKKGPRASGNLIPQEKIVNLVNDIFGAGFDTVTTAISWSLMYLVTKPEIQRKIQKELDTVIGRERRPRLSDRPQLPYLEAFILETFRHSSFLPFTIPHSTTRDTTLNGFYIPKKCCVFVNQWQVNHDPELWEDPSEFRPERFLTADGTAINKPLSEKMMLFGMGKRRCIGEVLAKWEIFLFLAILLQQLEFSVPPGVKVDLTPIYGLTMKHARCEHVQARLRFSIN

Cytochrome P450 2C9 = Cytochrome P450 2C9 (Homo sapiens, UniProt P11712); assay: Inhibition of CYP2C9; format: ADME
Sequence of Cytochrome P450 2C9 (P11712 whole entry): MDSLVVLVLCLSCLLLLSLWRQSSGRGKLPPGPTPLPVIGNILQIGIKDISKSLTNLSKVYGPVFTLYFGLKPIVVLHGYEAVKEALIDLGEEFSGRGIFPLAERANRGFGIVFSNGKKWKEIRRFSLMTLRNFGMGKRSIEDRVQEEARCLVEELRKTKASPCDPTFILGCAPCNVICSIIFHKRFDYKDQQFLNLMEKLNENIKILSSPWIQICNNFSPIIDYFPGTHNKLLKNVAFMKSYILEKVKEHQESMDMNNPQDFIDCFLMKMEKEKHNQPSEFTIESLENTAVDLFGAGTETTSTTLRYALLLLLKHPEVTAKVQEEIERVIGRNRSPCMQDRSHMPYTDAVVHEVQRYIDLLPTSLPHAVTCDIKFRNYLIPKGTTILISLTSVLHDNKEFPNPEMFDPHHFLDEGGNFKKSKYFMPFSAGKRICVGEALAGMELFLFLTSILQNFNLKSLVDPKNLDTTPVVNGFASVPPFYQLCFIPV

Cytochrome P450 2C19 = Cytochrome P450 2C19 (Homo sapiens, UniProt P33261); assay: Inhibition of CYP2C19; format: ADME
Sequence of Cytochrome P450 2C19 (P33261 whole entry): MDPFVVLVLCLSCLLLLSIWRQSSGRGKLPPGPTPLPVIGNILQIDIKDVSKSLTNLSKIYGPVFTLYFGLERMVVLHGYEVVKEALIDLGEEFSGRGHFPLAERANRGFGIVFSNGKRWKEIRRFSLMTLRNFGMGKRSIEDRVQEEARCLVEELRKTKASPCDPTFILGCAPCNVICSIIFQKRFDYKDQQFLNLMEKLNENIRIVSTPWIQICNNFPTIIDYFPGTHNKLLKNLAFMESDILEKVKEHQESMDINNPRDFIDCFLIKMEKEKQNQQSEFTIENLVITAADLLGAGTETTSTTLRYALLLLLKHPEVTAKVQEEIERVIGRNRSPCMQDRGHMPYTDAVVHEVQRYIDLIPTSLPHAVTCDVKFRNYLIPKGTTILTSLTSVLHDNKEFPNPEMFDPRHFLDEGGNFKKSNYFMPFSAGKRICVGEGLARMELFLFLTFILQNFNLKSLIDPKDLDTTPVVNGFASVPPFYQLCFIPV

Cytochrome P450 2D6 = Cytochrome P450 2D6 (Homo sapiens, UniProt P10635); assay: Inhibition of CYP2D6; format: ADME
Sequence of Cytochrome P450 2D6 (P10635 whole entry): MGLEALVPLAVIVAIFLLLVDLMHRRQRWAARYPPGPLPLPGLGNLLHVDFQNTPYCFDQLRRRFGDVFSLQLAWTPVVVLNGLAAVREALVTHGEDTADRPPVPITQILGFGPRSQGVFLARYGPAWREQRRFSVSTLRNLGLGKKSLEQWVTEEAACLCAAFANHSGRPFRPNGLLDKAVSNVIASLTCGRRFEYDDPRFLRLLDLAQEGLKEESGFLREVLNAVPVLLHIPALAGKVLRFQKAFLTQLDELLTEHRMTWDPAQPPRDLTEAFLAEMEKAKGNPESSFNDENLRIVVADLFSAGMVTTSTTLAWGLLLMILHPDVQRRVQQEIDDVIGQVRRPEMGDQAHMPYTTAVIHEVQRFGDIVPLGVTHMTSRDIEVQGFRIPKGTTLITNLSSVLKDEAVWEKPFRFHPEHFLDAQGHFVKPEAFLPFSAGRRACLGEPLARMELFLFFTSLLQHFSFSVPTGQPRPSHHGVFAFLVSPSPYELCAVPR

Cytochrome P450 3A4 = Cytochrome P450 3A4 (Homo sapiens, UniProt P08684); assay: Inhibition of CYP3A4; format: ADME
Sequence of Cytochrome P450 3A4 (P08684 whole entry): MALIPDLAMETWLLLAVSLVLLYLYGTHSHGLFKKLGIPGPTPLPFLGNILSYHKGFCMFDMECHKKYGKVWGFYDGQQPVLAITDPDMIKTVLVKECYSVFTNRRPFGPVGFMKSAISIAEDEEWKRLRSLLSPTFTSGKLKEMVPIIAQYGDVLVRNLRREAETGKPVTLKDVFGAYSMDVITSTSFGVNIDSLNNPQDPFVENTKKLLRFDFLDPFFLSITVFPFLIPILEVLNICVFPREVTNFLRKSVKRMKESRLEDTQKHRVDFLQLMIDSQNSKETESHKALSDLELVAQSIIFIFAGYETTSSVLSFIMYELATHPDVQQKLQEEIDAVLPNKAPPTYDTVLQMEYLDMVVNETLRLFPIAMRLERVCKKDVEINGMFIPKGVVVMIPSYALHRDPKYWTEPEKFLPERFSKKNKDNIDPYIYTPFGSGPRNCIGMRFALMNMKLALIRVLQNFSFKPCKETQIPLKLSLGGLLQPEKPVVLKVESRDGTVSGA

[13] = Time dependent inhibition of CYP; format: ADME
Liver = assay: Intrinsic clearance in rat liver microsomes assessed as media loss of parent compound per million cells
[14] = […] pKa of the compound; format: physicochemical
[15] = Thermodynamic solubility of compound by shake-flask technique; format: physicochemical; details: read-out: Therm_solubility
[16] = Ratio of drug level in blood to plasma in Sprague-Dawley rat; format: ADME
[17] = Plasma clearance in bile duct cannulated Sprague-Dawley rat; format: ADME, organism-based
Plasma [18] = assay: as §1; format: ADME, cell-free
Plasma [19] = assay: as §2; format: ADME, cell-free
[20] = target: T3, Solute carrier organic anion transporter family member 1B1 (Homo sapiens, UniProt Q9Y6L6); assay: Inhibition of OATP1B1 transporter
T3 sequence (Q9Y6L6 whole entry): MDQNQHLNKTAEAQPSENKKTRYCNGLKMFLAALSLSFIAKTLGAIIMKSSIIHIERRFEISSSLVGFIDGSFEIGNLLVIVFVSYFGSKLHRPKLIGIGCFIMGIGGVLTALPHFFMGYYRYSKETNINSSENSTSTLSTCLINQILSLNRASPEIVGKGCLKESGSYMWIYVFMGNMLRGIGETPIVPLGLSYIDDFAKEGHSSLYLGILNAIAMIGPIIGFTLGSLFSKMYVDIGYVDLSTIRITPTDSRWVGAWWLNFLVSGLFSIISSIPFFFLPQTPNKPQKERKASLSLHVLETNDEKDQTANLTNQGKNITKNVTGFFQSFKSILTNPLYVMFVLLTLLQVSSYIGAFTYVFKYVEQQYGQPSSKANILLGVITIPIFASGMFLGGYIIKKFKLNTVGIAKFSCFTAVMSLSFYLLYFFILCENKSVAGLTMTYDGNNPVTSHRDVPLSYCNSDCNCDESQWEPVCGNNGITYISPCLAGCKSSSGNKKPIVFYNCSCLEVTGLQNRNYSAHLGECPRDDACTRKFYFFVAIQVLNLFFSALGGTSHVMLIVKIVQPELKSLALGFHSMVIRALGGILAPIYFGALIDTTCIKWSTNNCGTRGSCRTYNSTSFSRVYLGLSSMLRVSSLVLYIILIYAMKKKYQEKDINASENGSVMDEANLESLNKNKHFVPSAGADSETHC

[21] = target: T4, fMet-Leu-Phe receptor (Homo sapiens) (UniProt P21462); assay: Antagonist activity at human recombinant FPR1 in expressed in HEK293 cells assessed as inhibition of FMLP-stimulated intracellular calcium mobilisation at 30 uM after 1 hr by FLIPR assay; format: functional, cell-based
T4 sequence (whole entry): T1 sequence (P21462 whole entry)

COCC(C)n1nc(C)c(C(=O)N[C@@H](C)C(C)(C)C)c1NS(=O)(=O)c1ccc(C)cc1 (some centres not stated)
IC50 (fMet-Leu-Phe receptor [1]): 2510 nM | hepatocyte CLint at […] [2]: < 3 µL/min/1e6 cells

CO[C@H]1CC[C@@H](n2nc(C)c(C(=O)N[C@@H](C)C(C)(C)C)c2NS(=O)(=O)c2ccc(C)cc2)CC1
IC50 (fMet-Leu-Phe receptor [1]): 3.98 nM | logD [3]: 1.3 | microsomal CLint at 0.75 h [4]: 8 µL/min/mg | hepatocyte CLint at […] [5]: 3.6 µL/min/1e6 cells | hepatocyte CLint at […] [2]: 3 µL/min/1e6 cells | fraction unbound [6]: 0.073 | fraction unbound [7]: 0.1 | clearance [8]: 5.5 mL/min/kg | half-life [9]: 168 min | Vd [10]: 1.2 L/kg | bioavailability [11]: 80% | Kb (fMet-Leu-Phe receptor [12]): 20 nM | IC50 (THP-1): > 50100 nM | IC50 (Cytochrome P450 1A2): > 10000 nM | IC50 (Cytochrome P450 2C9): > 10000 nM | IC50 (Cytochrome P450 2C19): > 10000 nM | IC50 (Cytochrome P450 2D6): > 10000 nM | IC50 (Cytochrome P450 3A4): > 10000 nM | pIC50 [13]: < 5

COCCC(C)n1nc(C)c(C(=O)N[C@@H](C)C(C)(C)C)c1NS(=O)(=O)c1ccc(C)cc1 (some centres not stated)
IC50 (fMet-Leu-Phe receptor [1]): 316 nM | hepatocyte CLint at […] [2]: 10 µL/min/1e6 cells

Cc1ccc(S(=O)(=O)Nc2c(C(=O)N[C@@H](C)C(C)(C)C)c(C)nn2C(C)(C)C)cc1
IC50 (fMet-Leu-Phe receptor [1]): 1580 nM | hepatocyte CLint at […] [2]: 53 µL/min/1e6 cells

Cc1ccc(S(=O)(=O)Nc2c(C(=O)N[C@@H](C)C(C)(C)C)c(C)nn2C2CCS(=O)(=O)CC2)cc1
IC50 (fMet-Leu-Phe receptor [1]): 10000 nM

Cc1ccc(S(=O)(=O)Nc2c(C(=O)N[C@@H](C)C(C)(C)C)c(C)nn2C2CCCCC2)cc1
IC50 (fMet-Leu-Phe receptor [1]): 31.6 nM | hepatocyte CLint at […] [2]: 8 µL/min/1e6 cells | CLH (Liver): 23 µL/min

Cc1ccc(S(=O)(=O)Nc2c(C(=O)N[C@@H](C)C(C)(C)C)c(C)nn2CC(F)(F)F)cc1
IC50 (fMet-Leu-Phe receptor [1]): 3160 nM | hepatocyte CLint at […] [2]: 74 µL/min/1e6 cells | CLH (Liver): 18 µL/min

Cc1nn(-c2ccc(F)cc2)c(NS(=O)(=O)c2ccc(C#N)cc2)c1C(=O)N[C@@H](C)C(C)(C)C
microsomal CLint at 0.75 h [4]: 5 µL/min/mg | hepatocyte CLint at […] [5]: < 3 µL/min/1e6 cells | hepatocyte CLint at […] [2]: < 4 µL/min/1e6 cells | pKa [14]: 3 | solubility thermodynamic [15]: > 2010 µM | fraction unbound [6]: 0.08 | fraction unbound [7]: 0.043 | blood plasma ratio [16]: 0.7 | CLH (Liver): 33 µL/min | clearance [8]: 42 mL/min/kg | half-life [9]: 36 min | Vd [10]: 0.23 L/kg | bioavailability [11]: 5% | clearance [17]: 21 mL/min/kg

Cc1ccc(S(=O)(=O)Nc2c(C(=O)N[C@@H](C)C(C)(C)C)c(C)nn2C2CCSCC2)cc1
IC50 (fMet-Leu-Phe receptor [1]): 39.8 nM

Cc1nn(C2CCOCC2)c(NS(=O)(=O)c2ccc(C3CC3)cc2)c1C(=O)N[C@@H](C)C(C)(C)C
IC50 (fMet-Leu-Phe receptor [1]): 158 nM | logD [3]: 1.2 | solubility thermodynamic [15]: > 2800 µM | fraction unbound [6]: 0.075 | fraction unbound [7]: 0.111 | Vd [10]: 0.5 L/kg | bioavailability [11]: 83% | Kb (fMet-Leu-Phe receptor [12]): 794 nM | IC50 (THP-1): > 50100 nM | IC50 (Cytochrome P450 1A2): > 10000 nM | IC50 (Cytochrome P450 2C9): > 10000 nM | IC50 (Cytochrome P450 2C19): > 10000 nM | IC50 (Cytochrome P450 2D6): > 10000 nM | IC50 (Cytochrome P450 3A4): > 10000 nM | pIC50 [13]: < 5

CCC(CC)NC(=O)c1c(C)nn(C(C)C)c1NS(=O)(=O)c1ccc(C)cc1
IC50 (fMet-Leu-Phe receptor [1]): 25100 nM

Cc1ccc(S(=O)(=O)Nc2c(C(=O)N[C@@H](C)C(C)(C)C)c(C)nn2-c2ccccc2)cc1
microsomal CLint at 0.75 h [4]: 40 µL/min/mg | hepatocyte CLint at […] [5]: 7 µL/min/1e6 cells | pKa [14]: 3.9 | solubility thermodynamic [15]: 1030 µM (≈ 468 µg/mL) | Fu (Plasma [18]): 4.2% | Fu (Plasma [19]): 1.1% | blood plasma ratio [16]: 0.7 | IC50 [20]: 7940 nM | CLH (Liver): 412 µL/min | clearance [8]: 42 mL/min/kg | half-life [9]: 15 min | Vd [10]: 0.45 L/kg | bioavailability [11]: 19%

CCC(CC)n1nc(C)c(C(=O)N[C@@H](C)C(C)(C)C)c1NS(=O)(=O)c1ccc(C)cc1
IC50 (fMet-Leu-Phe receptor [1]): 398 nM

Cc1ccc(S(=O)(=O)Nc2c(C(=O)N[C@@H](C)C(C)(C)C)c(C)nn2C2CCN(C)CC2)cc1
inhibition [21]: < 30%

Cc1ccc(S(=O)(=O)Nc2c(C(=O)N[C@@H](C)C(C)(C)C)c(C)nn2C2CCC2)cc1
IC50 (fMet-Leu-Phe receptor [1]): 200 nM | hepatocyte CLint at […] [2]: 17 µL/min/1e6 cells

CO[C@H]1CC[C@H](n2nc(C)c(C(=O)N[C@@H](C)C(C)(C)C)c2NS(=O)(=O)c2ccc(C)cc2)CC1
inhibition [21]: < 30%

Cc1ccc(S(=O)(=O)Nc2c(C(=O)N[C@@H](C)C(C)(C)C)c(C)nn2C2CCOCC2)cc1
IC50 (fMet-Leu-Phe receptor [1]): 316 nM

Cc1ccc(S(=O)(=O)Nc2c(C(=O)N[C@@H](C)C(C)(C)C)c(C)nn2C2CCOC2)cc1 (some centres not stated)
IC50 (fMet-Leu-Phe receptor [1]): 1000 nM

Cc1ccc(S(=O)(=O)Nc2c(C(=O)N[C@@H](C)C(C)(C)C)c(C)nn2C2CCCC2)cc1
IC50 (fMet-Leu-Phe receptor [1]): 79.4 nM | hepatocyte CLint at […] [2]: 8 µL/min/1e6 cells | CLH (Liver): 12 µL/min

Cc1ccc(S(=O)(=O)Nc2c(C(=O)N[C@@H](C)C(C)(C)C)c(C)nn2C2CCN(CC(F)(F)F)CC2)cc1
IC50 (fMet-Leu-Phe receptor [1]): 3160 nM

Cc1ccc(S(=O)(=O)Nc2c(C(=O)N[C@@H](C)C(C)(C)C)c(C)nn2C(C)C)cc1
IC50 (fMet-Leu-Phe receptor [1]): 1000 nM | hepatocyte CLint at […] [2]: < 6 µL/min/1e6 cells | fraction unbound [7]: 0.04 | CLH (Liver): 7.8 µL/min | clearance [8]: 4 mL/min/kg
